Measurements: patent publication US20240025884A1 (Dong-A ST Co., Ltd., priority 2022, published 2024)

Target: GCN2 (Homo sapiens (Human), UniProt Q9P2K8)
Assay: GCN2 Biochemical Assay (TR-FRET, GFP-eIF2S1 substrate phosphorylation)
Details: read-out: IC50 (GCN2 Inhibitory Activity)
Summary of the method: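 TR-FRET readout (Ex 340, Em 490/520 nm) after 2–3 h with Tb-labelled phospho-eIF2S1 antibody in stop mix, following a 70 min room-temperature kinase step. Reaction: in-house GCN2, GFP-eIF2S1, ATP, tRNA in Tris pH 7.5 (2× stocks 1.6 nM, 50 nM, 0.2 mM); compounds tested at 10 concentrations, with a phospho-substrate artifact counter-plate.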

GCN2, sequence (Q9P2K8 whole entry): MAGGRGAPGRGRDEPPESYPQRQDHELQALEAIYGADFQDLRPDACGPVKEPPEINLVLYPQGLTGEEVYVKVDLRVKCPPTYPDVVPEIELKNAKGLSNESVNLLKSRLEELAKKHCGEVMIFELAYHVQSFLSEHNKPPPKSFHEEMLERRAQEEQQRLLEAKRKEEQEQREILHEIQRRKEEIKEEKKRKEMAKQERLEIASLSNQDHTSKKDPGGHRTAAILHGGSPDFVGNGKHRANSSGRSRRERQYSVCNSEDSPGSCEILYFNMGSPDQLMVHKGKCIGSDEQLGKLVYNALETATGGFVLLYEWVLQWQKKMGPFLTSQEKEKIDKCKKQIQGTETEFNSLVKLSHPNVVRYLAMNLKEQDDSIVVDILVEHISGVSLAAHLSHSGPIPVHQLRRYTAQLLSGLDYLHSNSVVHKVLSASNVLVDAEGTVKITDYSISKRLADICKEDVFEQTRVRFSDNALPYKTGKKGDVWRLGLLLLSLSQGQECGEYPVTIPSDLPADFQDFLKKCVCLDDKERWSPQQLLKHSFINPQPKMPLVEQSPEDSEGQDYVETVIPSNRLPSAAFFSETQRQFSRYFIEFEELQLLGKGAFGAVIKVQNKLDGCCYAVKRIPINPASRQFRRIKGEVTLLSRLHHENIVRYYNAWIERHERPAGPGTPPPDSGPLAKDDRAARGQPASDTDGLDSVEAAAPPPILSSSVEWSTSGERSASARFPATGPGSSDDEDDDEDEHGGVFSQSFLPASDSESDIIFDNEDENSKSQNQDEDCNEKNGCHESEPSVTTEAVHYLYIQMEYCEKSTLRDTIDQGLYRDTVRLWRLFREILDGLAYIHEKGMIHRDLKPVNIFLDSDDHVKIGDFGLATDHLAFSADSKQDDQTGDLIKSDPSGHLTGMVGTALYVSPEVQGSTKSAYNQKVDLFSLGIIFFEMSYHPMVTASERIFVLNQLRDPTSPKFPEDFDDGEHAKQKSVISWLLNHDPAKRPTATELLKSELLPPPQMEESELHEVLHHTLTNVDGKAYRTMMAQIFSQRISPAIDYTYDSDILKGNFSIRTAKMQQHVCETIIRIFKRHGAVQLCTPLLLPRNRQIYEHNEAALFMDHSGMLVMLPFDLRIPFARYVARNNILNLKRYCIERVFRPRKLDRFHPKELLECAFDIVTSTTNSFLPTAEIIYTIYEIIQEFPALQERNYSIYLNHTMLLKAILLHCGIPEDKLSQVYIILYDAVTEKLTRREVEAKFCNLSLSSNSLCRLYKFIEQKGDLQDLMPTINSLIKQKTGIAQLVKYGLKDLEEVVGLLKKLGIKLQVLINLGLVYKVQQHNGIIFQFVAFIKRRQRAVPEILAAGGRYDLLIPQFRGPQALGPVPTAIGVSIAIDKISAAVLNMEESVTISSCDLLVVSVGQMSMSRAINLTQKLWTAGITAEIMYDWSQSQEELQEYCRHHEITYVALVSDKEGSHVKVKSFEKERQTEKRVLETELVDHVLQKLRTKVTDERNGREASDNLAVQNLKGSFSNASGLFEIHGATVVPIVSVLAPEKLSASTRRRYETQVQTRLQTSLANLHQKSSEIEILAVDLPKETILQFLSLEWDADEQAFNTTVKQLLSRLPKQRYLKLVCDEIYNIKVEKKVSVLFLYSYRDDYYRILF

SMILES	IC50 [nM]
Cc1cnc(Nc2cc(C)n(C)n2)nc1-c1c[nH]c2c(NC(=O)CN3CC[C@H](Oc4cc(N5CC[C@@H](O)C5)ncn4)C3)cccc12 [Example 160, N-(3-(2-((1,5-dimethyl-1H-pyrazol-3-yl)amino)-5-methylpyrimidin-4-yl)-1H-indol-7-yl)-2-((S)-3-((6-((R)-3-hydroxypyrrolidin-1-yl)pyrimidin-4-yl)oxy)pyrrolidin-1-yl)acetamide]	< 10
Cc1cnc(Nc2cc(C)n(C)n2)nc1-c1c[nH]c2c(NC(=O)CN3CC[C@H](Oc4cc(N5CC[C@H](O)C5)ncn4)C3)cccc12 [Example 161, N-(3-(2-((1,5-dimethyl-1H-pyrazol-3-yl)amino)-5-methylpyrimidin-4-yl)-1H-indol-7-yl)-2-((S)-3-((6-((S)-3-hydroxypyrrolidin-1-yl)pyrimidin-4-yl)oxy)pyrrolidin-1-yl)acetamide]	< 10
Cc1cnc(Nc2cc(C)n(C)n2)nc1-c1c[nH]c2c(NC(=O)CN3CC[C@H](Oc4cc(N5CCCCC5)ncn4)C3)cccc12 [Example 162, (S)-N-(3-(2-((1,5-dimethyl-1H-pyrazol-3-yl)amino)-5-methylpyrimidin-4-yl)-1H-indol-7-yl)-2-(3-((6-(piperidin-1-yl)pyrimidin-4-yl)oxy)pyrrolidin-1-yl)acetamide]	< 10
Cc1cnc(Nc2cc(C)n(C)n2)nc1-c1c[nH]c2c(NC(=O)CN3CC[C@H](Oc4cc(N5CCC(O)CC5)ncn4)C3)cccc12 [Example 163, (S)-N-(3-(2-((1,5-dimethyl-1H-pyrazol-3-yl)amino)-5-methylpyrimidin-4-yl)-1H-indol-7-yl)-2-(3-((6-(4-hydroxypiperidin-1-yl)pyrimidin-4-yl)oxy)pyrrolidin-1-yl)acetamide]	< 10
Cc1cnc(Nc2cc(C)n(C)n2)nc1-c1c[nH]c2c(NC(=O)CN3CC[C@H](Oc4cc(N5CCOCC5)ncn4)C3)cccc12 [Example 164, (S)-N-(3-(2-((1,5-dimethyl-1H-pyrazol-3-yl)amino)-5-methylpyrimidin-4-yl)-1H-indol-7-yl)-2-(3-((6-morpholinopyrimidin-4-yl)oxy)pyrrolidin-1-yl)acetamide]	< 10
Cc1cnc(Nc2cc(C)n(C)n2)nc1-c1c[nH]c2c(NC(=O)CN3CC[C@H](Oc4cc(N5CCN(C)CC5)ncn4)C3)cccc12 [Example 165, (S)-N-(3-(2-((1,5-dimethyl-1H-pyrazol-3-yl)amino)-5-methylpyrimidin-4-yl)-1H-indol-7-yl)-2-(3-((6-(4-methylpiperazin-1-yl)pyrimidin-4-yl)oxy)pyrrolidin-1-yl)acetamide]	< 10
CNc1cc(O[C@H]2CCN(CC(=O)Nc3cccc4c(-c5nc(Nc6cc(C)n(C)n6)ncc5C)c[nH]c34)C2)nc(N)n1 [Example 166, (S)-2-(3-((2-amino-6-(methylamino)pyrimidin-4-yl)oxy)pyrrolidin-1-yl)-N-(3-(2-((1,5-dimethyl-1H-pyrazol-3-yl)amino)-5-methylpyrimidin-4-yl)-1H-indol-7-yl)acetamide]	< 10
Cc1cnc(Nc2cc(C)n(C)n2)nc1-c1c[nH]c2c(NC(=O)CN3CC[C@H](Oc4cc(N5CCCC5)nc(N)n4)C3)cccc12 [Example 167, (S)-2-(3-((2-amino-6-(pyrrolidin-1-yl)pyrimidin-4-yl)oxy)pyrrolidin-1-yl)-N-(3-(2-((1,5-dimethyl-1H-pyrazol-3-yl)amino)-5-methylpyrimidin-4-yl)-1H-indol-7-yl)acetamide]	10 to 100
Cc1cnc(Nc2cc(C)n(C)n2)nc1-c1c[nH]c2c(NC(=O)CN3CC[C@H](Oc4nccc(N)n4)C3)cccc12 [Example 168, (S)-2-(3-((4-aminopyrimidin-2-yl)oxy)pyrrolidin-1-yl)-N-(3-(2-((1,5-dimethyl-1H-pyrazol-3-yl)amino)-5-methylpyrimidin-4-yl)-1H-indol-7-yl)acetamide]	< 10
CNc1ccnc(O[C@H]2CCN(CC(=O)Nc3cccc4c(-c5nc(Nc6cc(C)n(C)n6)ncc5C)c[nH]c34)C2)n1 [Example 169, (S)-N-(3-(2-((1,5-dimethyl-1H-pyrazol-3-yl)amino)-5-methylpyrimidin-4-yl)-1H-indol-7-yl)-2-(3-((4-(methylamino)pyrimidin-2-yl)oxy)pyrrolidin-1-yl)acetamide]	< 10

The next lines start with the values.

IC50 [nM]	SMILES
< 10	Cc1cnc(Nc2cc(C)n(C)n2)nc1-c1c[nH]c2c(NC(=O)CN3CC[C@H](Oc4nccc(N(C)C)n4)C3)cccc12 [Example 170, (S)-N-(3-(2-((1,5-dimethyl-1H-pyrazol-3-yl)amino)-5-methylpyrimidin-4-yl)-1H-indol-7-yl)-2-(3-((4-(dimethylamino)pyrimidin-2-yl)oxy)pyrrolidin-1-yl)acetamide]
< 10	CCN(C)c1ccnc(O[C@H]2CCN(CC(=O)Nc3cccc4c(-c5nc(Nc6cc(C)n(C)n6)ncc5C)c[nH]c34)C2)n1 [Example 171, (S)-N-(3-(2-((1,5-dimethyl-1H-pyrazol-3-yl)amino)-5-methylpyrimidin-4-yl)-1H-indol-7-yl)-2-(3-((4-(ethyl(methyl)amino)pyrimidin-2-yl)oxy)pyrrolidin-1-yl)acetamide]
< 10	CCN(CC)c1ccnc(O[C@H]2CCN(CC(=O)Nc3cccc4c(-c5nc(Nc6cc(C)n(C)n6)ncc5C)c[nH]c34)C2)n1 [Example 172, (S)-2-(3-((4-(diethylamino)pyrimidin-2-yl)oxy)pyrrolidin-1-yl)-N-(3-(2-((1,5-dimethyl-1H-pyrazol-3-yl)amino)-5-methylpyrimidin-4-yl)-1H-indol-7-yl)acetamide]
< 10	Cc1cnc(Nc2cc(C)n(C)n2)nc1-c1c[nH]c2c(NC(=O)CN3CC[C@H](Oc4nccc(N5CCCC5)n4)C3)cccc12 [Example 173, (S)-N-(3-(2-((1,5-dimethyl-1H-pyrazol-3-yl)amino)-5-methylpyrimidin-4-yl)-1H-indol-7-yl)-2-(3-((4-(pyrrolidin-1-yl)pyrimidin-2-yl)oxy)pyrrolidin-1-yl)acetamide]
< 10	Cc1cnc(Nc2cc(C)n(C)n2)nc1-c1c[nH]c2c(NC(=O)CN3CC[C@H](Oc4nccc(N5CCCCC5)n4)C3)cccc12 [Example 174, (S)-N-(3-(2-((1,5-dimethyl-1H-pyrazol-3-yl)amino)-5-methylpyrimidin-4-yl)-1H-indol-7-yl)-2-(3-((4-(piperidin-1-yl)pyrimidin-2-yl)oxy)pyrrolidin-1-yl)acetamide]
< 10	Cc1cnc(Nc2cc(C)n(C)n2)nc1-c1c[nH]c2c(NC(=O)CN3CC[C@H](Oc4nccc(NC5CC5)n4)C3)cccc12 [Example 175, (S)-2-(3-((4-(cyclopropylamino)pyrimidin-2-yl)oxy)pyrrolidin-1-yl)-N-(3-(2-((1,5-dimethyl-1H-pyrazol-3-yl)amino)-5-methylpyrimidin-4-yl)-1H-indol-7-yl)acetamide]
10 to 100	Cc1cnc(Nc2cc(C)n(C)n2)nc1-c1c[nH]c2c(NC(=O)CN3CC[C@H](Oc4ncc(F)c(N)n4)C3)cccc12 [Example 176, (S)-2-(3-((4-amino-5-fluoropyrimidin-2-yl)oxy)pyrrolidin-1-yl)-N-(3-(2-((1,5-dimethyl-1H-pyrazol-3-yl)amino)-5-methylpyrimidin-4-yl)-1H-indol-7-yl)acetamide]
< 10	CNc1nc(O[C@H]2CCN(CC(=O)Nc3cccc4c(-c5nc(Nc6cc(C)n(C)n6)ncc5C)c[nH]c34)C2)ncc1F [Example 177, (S)-N-(3-(2-((1,5-dimethyl-1H-pyrazol-3-yl)amino)-5-methylpyrimidin-4-yl)-1H-indol-7-yl)-2-(3-((5-fluoro-4-(methylamino)pyrimidin-2-yl)oxy)pyrrolidin-1-yl)acetamide]
< 10	CCNc1nc(O[C@H]2CCN(CC(=O)Nc3cccc4c(-c5nc(Nc6cc(C)n(C)n6)ncc5C)c[nH]c34)C2)ncc1F [Example 178, (S)-N-(3-(2-((1,5-dimethyl-1H-pyrazol-3-yl)amino)-5-methylpyrimidin-4-yl)-1H-indol-7-yl)-2-(3-((4-(ethylamino)-5-fluoropyrimidin-2-yl)oxy)pyrrolidin-1-yl)acetamide]
< 10	Cc1cnc(Nc2cc(C)n(C)n2)nc1-c1c[nH]c2c(NC(=O)CN3CC[C@H](Oc4ncc(F)c(NC5CC5)n4)C3)cccc12 [Example 179, (S)-2-(3-((4-(cyclopropylamino)-5-fluoropyrimidin-2-yl)oxy)pyrrolidin-1-yl)-N-(3-(2-((1,5-dimethyl-1H-pyrazol-3-yl)amino)-5-methylpyrimidin-4-yl)-1H-indol-7-yl)acetamide]
10 to 100	Cc1cnc(Nc2cc(C)n(C)n2)nc1-c1c[nH]c2c(NC(=O)CN3CC[C@H](Oc4ncc(F)c(NC5CCCCC5)n4)C3)cccc12 [Example 180, (S)-2-(3-((4-(cyclohexylamino)-5-fluoropyrimidin-2-yl)oxy)pyrrolidin-1-yl)-N-(3-(2-((1,5-dimethyl-1H-pyrazol-3-yl)amino)-5-methylpyrimidin-4-yl)-1H-indol-7-yl)acetamide]
< 10	Cc1cnc(Nc2cc(C)n(C)n2)nc1-c1c[nH]c2c(NC(=O)CN3CC[C@H](Oc4ncc(F)c(N(C)C)n4)C3)cccc12 [Example 181, (S)-N-(3-(2-((1,5-dimethyl-1H-pyrazol-3-yl)amino)-5-methylpyrimidin-4-yl)-1H-indol-7-yl)-2-(3-((4-(dimethylamino)-5-fluoropyrimidin-2-yl)oxy)pyrrolidin-1-yl)acetamide]
< 10	CCN(C)c1nc(O[C@H]2CCN(CC(=O)Nc3cccc4c(-c5nc(Nc6cc(C)n(C)n6)ncc5C)c[nH]c34)C2)ncc1F [Example 182, (S)-N-(3-(2-((1,5-dimethyl-1H-pyrazol-3-yl)amino)-5-methylpyrimidin-4-yl)-1H-indol-7-yl)-2-(3-((4-(ethyl(methyl)amino)-5-fluoropyrimidin-2-yl)oxy)pyrrolidin-1-yl)acetamide]
< 10	CCN(CC)c1nc(O[C@H]2CCN(CC(=O)Nc3cccc4c(-c5nc(Nc6cc(C)n(C)n6)ncc5C)c[nH]c34)C2)ncc1F [Example 183, (S)-2-(3-((4-(diethylamino)-5-fluoropyrimidin-2-yl)oxy)pyrrolidin-1-yl)-N-(3-(2-((1,5-dimethyl-1H-pyrazol-3-yl)amino)-5-methylpyrimidin-4-yl)-1H-indol-7-yl)acetamide]
